Data reported in patent US10722446B2, “Aqueous oral care compositions” (Colgate-Palmolive Company, priority 2011, dated 2020).

Experiment: Rheological properties (stress controlled AR2000ex rheometer, flow curve and strain sweep)
Format: physicochemical
From the text: The three commercial mouthwashes are a simple fluoride-rinse type mouthwash (comparative formulation 1), a polymer based high fluoride mouthwash (comparative formulation 2), and a mouthwash having a conventional polymer system different from that described in this case (mouthwash 3). The rheological properties of the formulations are quantified using a stress controlled AR2000ex rheometer (TA Instruments) and a cuette type geometry. A flow curve is generated and fit to a power law model to quantify the flow rate index, n. A strain sweep is conducted to quantify the elastic modulus, G′ and the loss modulus, G″.

[1] = flow curve fit to a power law model
[2] = strain sweep, cuette type geometry

With `O` [Newtonian Fluid Example, Water] the k [1] was 1.1 cps, the “n (flow rate index)” value [1] was 1.0 and the “G′/G″” value (ratio of elastic to viscous components) was 0.09. The “G′ (elastic modulus)” value [2] was 0.02 dyn/cm2 and the “G″ (loss modulus)” value [2] was 0.23 dyn/cm2.
